A melting point compilation (Tetko et al.; mined from patent text by program, amines drawn as free bases though some values may be those of a salt)

First: CN(Cc1cc(C(F)(F)F)cc(C(F)(F)F)c1)C(=O)c1c(-c2ccc(F)cc2)c2nccnc2c(=O)n1C
Second: N#CC(=C(Nc1cc(C(F)(F)F)cc(C(F)(F)F)c1)NC1CCCC1)S(=O)(=O)c1ccc(Cl)cc1
The melting point of the first is higher: 220 to 222 °C for the first, 199 to 200 °C for the second.

`Cc1c(N2C(=O)C[C@H](O)[C@@H]2C)ccc(C#N)c1Cl` and `N#Cc1ccc2c(c1)CN1C(=Nc3cccnc3)SC[C@@H]1C2` cannot be ordered by melting point: 172 to 173 °C for the first, 172 °C for the second.

Compared with `CCOC(=O)[C@@H]1C[C@H](Br)CN1C(=O)OC(C)(C)C`, `CC(C)(C)OC(=O)NCc1cccc(C(=O)O)n1` is higher in melting point: 32 to 34 °C for the first, 238 to 240 °C for the second.

Compared with `O=C(O)c1cccc(Oc2cccc(-c3nn(Cc4ccc(C(F)(F)P(=O)(O)O)c(Cl)c4)c(=Nc4ccc(Cl)c(Cl)c4)s3)c2)c1`, `O=c1nc(-c2cccc(Cl)c2)c2cc(C(c3ccc(Cl)cc3)n3ccnc3)ccc2[nH]1` (configuration not stated) is higher in melting point: 212 to 215 °C for the first, 255 °C for the second.

First: Cc1ccc(-n2nc3c(cc2=O)CCc2sc(C(C)O)cc2-3)cc1 (configuration not stated)
Second: CN(C)c1ccc2c(c1)C(=O)CC(c1cccc(O)c1)=N2
The melting point of the first is lower: 146 to 148 °C for the first, 342 to 344 °C for the second.

Compared with `CC1(C)OC(=O)C(C(=O)Nc2ccc(Cl)c(Cl)c2)=C(O)O1`, `CCOC(=O)c1cnoc1-c1ccc(Cl)c(Cl)c1` is lower in melting point: 132 to 134 °C for the first, 108 to 110 °C for the second.

First: CCCCN(C(=O)NC)c1ccc(Cl)c(Cl)c1
Second: CCCCCCOC(=O)Nc1ccc2c(c1)NC(=O)C2(C)C
The melting point of the first is lower: 58 °C for the first, 180 to 183 °C for the second.

First: CCOC(=O)c1cc(C)c(Cl)nc1Nc1ccccc1
Second: COC(=O)c1ccccc1-c1cc(-c2ccc(OC)cc2)[nH]n1
The melting point of the first is higher: 116 to 118 °C for the first, 92 to 93 °C for the second.

First: COc1ccc(-c2[nH]nc3c2C(=O)c2c(NC(=O)Cc4ccc(OC)c(OC)c4)cccc2-3)cc1
Second: COc1cc(CCCC2OC(=O)NC2=O)ccc1OCc1nc(-c2ccc3ccccc3c2)oc1C (configuration not stated)
The melting point of the first is higher: > 300 °C for the first, 173 to 174 °C for the second.

First: CCON=C(CC)C1=C(OC(=O)c2ccccc2)CC(c2c(OC)cc(OC)cc2OC)CC1=O (configuration not stated)
Second: COC(=O)C1=C(C)NC(C)=C(C#N)C1c1cccc2ncc(-c3ccccc3)cc12 (configuration not stated)
The melting point of the first is lower: 139 °C for the first, 242 °C for the second.

First: CC(O)(C#Cc1ccc(C(=O)c2ccccn2)cc1)C(F)(F)F (configuration not stated)
Second: O=C(CCCOc1ccc(OCc2ccccc2)cc1)C(F)(F)F
The melting point of the first is higher: 116 to 118 °C for the first, 51 to 53 °C for the second.

Compared with `N#Cc1cc(F)c(-n2nc(C(F)(F)F)[nH]c2=O)cc1F`, `CC(=NOCc1ccccc1-n1c(Cl)nn(C)c1=O)c1cccc(C(F)(F)F)c1` is higher in melting point: 51 °C for the first, 95 to 97 °C for the second.

First: CC(=O)c1c(F)c(F)c(OCCOc2ccc3ccccc3c2)c(F)c1F
Second: O=Cc1cc2c3ccccc3ccc2c2ccccc12
The melting point of the first is lower: 114 to 115 °C for the first, 167 to 169 °C for the second.

First: Cc1cc(C)c(=O)n(C(C(=O)O)c2ccc3c(c2)OCO3)n1 (configuration not stated)
Second: O=C(N[C@H](Cc1ccc(C(F)(F)F)cc1)[C@@H](O)c1ccc(F)cc1)c1ccc2c(c1)OCO2 (racemic)
The melting point of the first is lower: 165 °C for the first, 180 to 181 °C for the second.

Compared with `O=C(NCCCC1CCC2=C1CC=CC2)C(F)(F)F` (configuration not stated), `CCOC(=O)C1C(=O)c2ccccc2OC1C(F)(F)F` (configuration not stated) is higher in melting point: 61 to 62 °C for the first, 80.2 to 84.9 °C for the second.

First: CC(C)(C(=O)O)C(c1ccc(OCc2ccc3ccccc3n2)cc1)c1ccc(OCc2ccc3ccccc3n2)cc1
Second: COc1ccc(Oc2cccc3ncnc(NC(=O)Nc4ccccc4)c23)cc1
The melting point of the first is lower: 124 to 127 °C for the first, 231 to 232 °C for the second.

First: CN(C)C(=O)c1cc(O)ccc1C=Cc1ccc(O)cc1
Second: CCOC(=O)C1CCN(c2ccc(/C=C/C(=O)O)cc2)CC1
The melting point of the first is lower: 184 to 188 °C for the first, 212 °C for the second.

First: Cc1nc2c(s1)C(=O)C=C(NCCCN(C)CCCNC1=CC(=O)c3sc(C)nc3C1=O)C2=O
Second: O=S1N=C(NCCCN(Cc2ccc(F)cc2)c2ccccn2)C(NCc2ccncc2)=N1 (configuration not stated)
The melting point of the first is lower: 94 to 96 °C for the first, 160 to 163 °C for the second.

First: CCCN(CCC)c1ccccc1C(C)C(C(N)=O)c1ccc(C(=O)O)cc1 (configuration not stated)
Second: CC(=NOCCO)c1ccc(S(=O)(=O)c2ccccc2)cc1
The melting point of the first is higher: 175 to 178 °C for the first, 87 to 88 °C for the second.

Compared with `COc1ccc(N2CCN(CCN3CC(C)(C)C3)C2=O)cc1Cl`, `O=C1N(c2ccc(Cl)cc2)C(Cl)(Cl)C2CCCCC12Cl` (configuration not stated) is higher in melting point: 93 to 95 °C for the first, 120 to 124 °C for the second.

First: Cc1c(C)c2c(c(C)c1N)CC(C)(CN1CCN(C(=O)C(c3ccccc3)c3ccccc3)CC1)O2 (configuration not stated)
Second: CC(C)Oc1ccccc1Oc1ccc(NC(=O)N2CCc3ccccc3CC2)cn1
The melting point of the first is lower: 113 to 115 °C for the first, 149 to 152 °C for the second.

First: O=C(O)c1cc2c([N+](=O)[O-])c(O)c(O)cc2oc1=O
Second: CCCc1c(OCc2cc(Br)c(C(=O)O)cc2OC)ccc(C(C)=O)c1O
The melting point of the first is higher: > 300 °C for the first, 237 to 238 °C for the second.

First: Oc1ccc(Nc2nc(NCc3ccco3)nc(-n3ccnc3)n2)cc1
Second: COc1ccc(Nc2cccc(Cl)c2[N+](=O)[O-])cc1
The melting point of the first is higher: 244 to 246 °C for the first, 73 to 74 °C for the second.

Compared with `CC(=O)N(C)c1cccc(-c2nc(=O)c3ccccc3s2)n1`, `CC(C)OC(=O)Cc1nc(-c2ccccc2)oc1-c1ccsc1` is lower in melting point: 218 to 220 °C for the first, 62 to 63 °C for the second.

First: CC(=O)c1c(-c2cc(C)cs2)sc(-c2ccncc2)c1C
Second: CC1(C)CCC(C)(C)c2cc3c(cc21)CCc1c(-c2ccc(C(=O)O)cc2)csc1-3
The melting point of the first is lower: 106 to 108 °C for the first, 261 to 262 °C for the second.

First: COc1ccc(CN2C(=O)C3(COc4cc5c(cc43)CCO5)c3c2ccc2ncccc32)cc1 (configuration not stated)
Second: CCOC(=O)C1(S(=O)(=O)c2ccc(OC)cc2)CCN(Cc2ccc(-c3cccs3)cc2)CC1
The melting point of the first is higher: 169 to 170 °C for the first, 130 °C for the second.

First: COc1ccc(-c2ccccc2)cc1F
Second: O=C1OC(Cc2ccccc2)CN1c1cccc(F)c1 (configuration not stated)
The melting point of the first is lower: 84.5 to 86 °C for the first, 96 to 97.5 °C for the second.

First: CC(C)(C)[S@](=O)N1CCCC[C@@H]1c1ccccc1
Second: CNC1c2ccccc2CC1N1CCCCC1 (configuration not stated)
The melting point of the first is lower: 45 to 50 °C for the first, > 260 °C for the second.

First: CC(C)SN1N=C(c2ccccc2)C(SC(C)C)(SC(C)C)C1=O
Second: Cc1nc2c3c(ccc2n1C)[C@@H](O)[C@H](O)[C@@H](c1ccccc1)N3
The melting point of the first is lower: 66 to 67 °C for the first, 225 °C for the second.

First: CCCOCCOc1ccc(OCC(O)CNCCNC(N)=O)cc1 (configuration not stated)
Second: CN(CCOc1ccc(C=O)cc1)c1ncccn1
The melting point of the first is higher: 115 °C for the first, 74 to 75 °C for the second.

Compared with `O=Cc1cnccc1Cl`, `O=C(c1ccc(Cl)cc1)c1cncnc1` is higher in melting point: 53 to 54 °C for the first, 110 to 112 °C for the second.

First: Nc1c(F)c(F)c(F)c2c1c(=O)c(C(=O)O)cn2C1CC1
Second: CSc1nccc(-c2c(-c3ccc(F)cc3)ncn2C2CCN(C)CC2)n1
The melting point of the first is higher: 269 to 271 °C for the first, 181 to 182 °C for the second.

First: CC(CCCc1ccccc1)c1cc2oc(=O)c3c(c2cc1O)C(=O)CCC3 (configuration not stated)
Second: O=C(O)COc1cccc2c1CCc1sc(SCc3ccccc3)nc1-2
The melting point of the first is higher: 200 to 202 °C for the first, 180 to 182 °C for the second.

First: O=C1CCCc2cc(CCN3CCN(c4nsc5ccccc45)CC3)ccc2N1
Second: CC12CCC(=O)C=C1CCC1C2CCC2(C)C(n3cnc4ccccc43)=CCC12 (configuration not stated)
The melting point of the first is lower: 173 to 174 °C for the first, 201 to 204 °C for the second.

First: N#Cc1ccnc(C(N)=O)c1N
Second: Cc1nc(C#N)ccc1O
The melting point of the first is higher: > 310 °C for the first, 201 to 205 °C for the second.

Compared with `COC(=O)NCc1cc(C(C)=NOCc2cccc(C)n2)ccc1C`, `COC(=O)CCC(=O)c1ccc(S)cc1` is higher in melting point: 72 to 75 °C for the first, 83 to 84 °C for the second.

Compared with `Nc1ncccc1CNC1CCN(Cc2ccccc2)CC1`, `C1=C(c2cccc3c2ccn3Cc2ccccc2)CCN(Cc2ccccc2)C1` is higher in melting point: 114 °C for the first, 154 °C for the second.

Compared with `CCC(=O)Nc1nnc2c3c(c(N4CCOCC4)nn12)CCCC3`, `NC(=O)c1ccc(-c2cnc3[nH]c(=O)n(CC4CCCCC4)c3n2)cc1` is higher in melting point: 164 to 166 °C for the first, 293 to 295 °C for the second.

Compared with `CCCCCCCC(CC(=O)OO)CC(=O)OO`, `CCCCC(=N)OCC` is higher in melting point: 19 to 22 °C for the first, 89 to 91 °C for the second.

Compared with `CC(Br)C(=O)N1C(=O)c2ccccc2OC12CCCCC2` (configuration not stated), `CC(=O)N(C)c1cc(Cl)ccc1C(=O)c1cnoc1C1CC1` is higher in melting point: 74 to 76 °C for the first, 106 to 108 °C for the second.

First: CC(C)(C)Nc1c(NCc2ccc(F)cc2)c(=O)c1=O
Second: COc1cc(F)ccc1Oc1c(Cl)nc(C)nc1NS(=O)(=O)c1ccc(C(C)(C)C)cc1
The melting point of the first is higher: 296 to 298 °C for the first, 164 to 165 °C for the second.

First: CC1(C)OC(=S)Nc2ccc(-c3cccc(C#N)c3)cc21
Second: CC1SC(=O)NN=C1c1ccc2c(c1)C(C)(C)CC(=O)N2 (configuration not stated)
The melting point of the first is lower: 236 to 237 °C for the first, 288 °C for the second.

Compared with `CC1COCC(C)N1C(=O)N1Cc2c(-c3noc(C4CC4)n3)ncn2-c2ccc(F)cc21` (configuration not stated), `CCN1c2ncc(N)cc2C(=O)N(C)c2cccnc21` is higher in melting point: 143 to 146 °C for the first, 189 to 191 °C for the second.

First: O=C(O)C1c2ccccc2C=Cc2ccccc21
Second: CC(C)(C)[C@@H](O)c1cccc(-c2ccc(OCCO)cc2)n1
The melting point of the first is higher: 244 to 245 °C for the first, 104 °C for the second.

First: CC1CN(c2ccc(N)cc2)CC(C)N1 (configuration not stated)
Second: CC(C)CON=Cc1ccc2c(c1)c1cc(-c3ccc(Cl)cc3Cl)c(=O)n(C)c1n2C
The melting point of the first is higher: 124 to 125 °C for the first, 100 to 110 °C for the second.

Compared with `CCSC(=O)OCOC(=O)COc1nc(Cl)c(Cl)cc1Cl`, `CCOc1ccc(CC(C)=O)cc1S(N)(=O)=O` is higher in melting point: 70 to 71 °C for the first, 158 to 159 °C for the second.

First: COc1nnc(C)c(-c2ccc(SC)cn2)c1-c1ncc(Cl)cc1Cl
Second: Cn1cnnc1C(N)(c1ccc(Cl)cc1)c1ccc2c(c1)c(-c1cccc(Cl)c1)nc1nnnn12 (configuration not stated)
The melting point of the first is lower: 147 to 149 °C for the first, 220 °C for the second.

First: CCCCCCCCc1ccc(N(c2ccc(CCCCCCCC)cc2)C2(c3ccc(N(CC)CC)cc3)OC(=O)c3nccnc32)cc1 (configuration not stated)
Second: Cc1cccc2oc3cc(Cl)ccc3c(=O)c12
The melting point of the first is higher: 180 to 181 °C for the first, 111 to 113 °C for the second.

Compared with `Cn1c(Cl)c(Cl)c(C#N)c1Cl`, `CCCc1cc(O)c(C#N)s1` is lower in melting point: 113 to 114 °C for the first, 78 °C for the second.

First: O=C(N[C@H]1C[C@H](C(=O)O)Nc2cc(Cl)cc(Cl)c21)C1CCCCC1 (relative stereo)
Second: Cc1cc(OC(F)F)nc(NC(=O)NS(=O)(=O)c2cccnc2Cl)n1
The melting point of the first is higher: 190 to 195 °C for the first, 161 to 162 °C for the second.

First: O=C(c1nccs1)c1cnn2c(-c3cccnc3)ccnc12
Second: c1cn(-c2cc(-n3ccnc3)ncn2)cn1
The melting point of the first is higher: 262 to 264 °C for the first, 243 to 244 °C for the second.
